Structures can show the parent of a compound that is named as a salt. Where two headings read alike, the source gives them in different places.

What all share (type): biochemical
For one test, the target named is MASP-2 (CCP1-CCP2-SP) (Homo sapiens (Human), UniProt O00187). Put plainly: biochemical.
For a further test, the target named is mMASP-2 (Mus musculus (Mouse), UniProt Q91WP0). The experiment in a line: Enzymatic inhibition of mMASP-2.
A further test deals with human α-thrombin (Homo sapiens (Human), UniProt P00734). The experiment in a line: Enzymatic assay for thrombin (Boc-VPR-AMC substrate).
Setting [1] is: selectivity for MASP-2 inhibition versus thrombin.

Sequence of mMASP-2 (Q91WP0 20-685): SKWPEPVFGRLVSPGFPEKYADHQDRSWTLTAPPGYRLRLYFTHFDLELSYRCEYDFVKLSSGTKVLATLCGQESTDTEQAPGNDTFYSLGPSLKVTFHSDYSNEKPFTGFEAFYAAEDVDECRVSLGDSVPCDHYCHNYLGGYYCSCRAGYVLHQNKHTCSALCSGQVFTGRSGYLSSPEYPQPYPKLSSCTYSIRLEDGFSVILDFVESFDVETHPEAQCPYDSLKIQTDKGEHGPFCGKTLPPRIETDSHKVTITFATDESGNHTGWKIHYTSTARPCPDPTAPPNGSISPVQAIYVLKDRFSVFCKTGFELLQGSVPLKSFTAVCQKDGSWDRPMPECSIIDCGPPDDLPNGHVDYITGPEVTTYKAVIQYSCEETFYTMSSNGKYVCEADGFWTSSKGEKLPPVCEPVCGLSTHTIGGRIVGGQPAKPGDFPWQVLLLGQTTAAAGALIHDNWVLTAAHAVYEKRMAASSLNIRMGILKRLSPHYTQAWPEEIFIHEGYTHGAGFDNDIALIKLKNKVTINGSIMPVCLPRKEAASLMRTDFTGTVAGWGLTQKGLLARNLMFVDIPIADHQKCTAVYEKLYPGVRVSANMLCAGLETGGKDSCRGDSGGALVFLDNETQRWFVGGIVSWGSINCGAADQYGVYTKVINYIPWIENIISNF
Sequence of MASP-2 (CCP1-CCP2-SP) (O00187 445-686): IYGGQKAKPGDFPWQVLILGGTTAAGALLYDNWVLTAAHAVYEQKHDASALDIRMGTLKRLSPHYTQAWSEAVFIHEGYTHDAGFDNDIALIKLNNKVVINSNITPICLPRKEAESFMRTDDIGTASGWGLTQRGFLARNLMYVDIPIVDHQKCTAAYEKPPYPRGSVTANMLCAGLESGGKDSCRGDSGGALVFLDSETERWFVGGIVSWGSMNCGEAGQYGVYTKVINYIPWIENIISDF

What is called Ki is the equilibrium dissociation constant of an inhibitor or competing ligand from its target. On to `C[C@H](NC(=O)[C@H]1C[C@H](Cc2ccc(F)c(Cl)c2)CN1CC(=O)O)C(=O)NCc1cnc2c(c1)c(Cl)cn2C` [compound 1484, 2-((2R,4S)-2-(((S)-1-(((3-Chloro-1-methyl-1H-pyrrolo[2,3-b]pyridin-5-yl)methyl)amino)-1-oxopropan-2-yl)carbamoyl)-4-(3-chloro-4-fluorobenzyl)pyrrolidin-1-yl)acetic acid Trifluoroacetate salt], for which the Ki at MASP-2 (CCP1-CCP2-SP) is 500 to 2500 nM; on mMASP-2 (read-out: mMASP-2 Ki), 500 to 2500 nM; on human α-thrombin (read-out: Thrombin Ki), over 25 µM.
Regarding `C[C@H](NC(=O)[C@H]1C[C@H](c2ccccc2)CN1)C(=O)NCc1cc(Cl)cc(Cl)c1O` [compound 1395, (2R,4R)—N—((S)-1-((3,5-dichloro-2-hydroxybenzyl)amino)-1-oxopropan-2-yl)-4-phenylpyrrolidine-2-carboxamide Trifluoroacetate], the Ki at MASP-2 (CCP1-CCP2-SP) is 500 to 2500 nM; at mMASP-2 (read-out: mMASP-2 Ki), 2500 to 10000 nM; on human α-thrombin (read-out: Thrombin Ki), over 25 µM.
Consider `Cc1nc(N)ccc1CNC(=O)[C@H](C)NC(=O)[C@H]1CC(Cc2ccc(F)cc2)(Cc2ccc(F)cc2)CN1` [compound 1480, (R)—N—((S)-1-(((6-Amino-2-methylpyridin-3-yl)methyl)amino)-1-oxopropan-2-yl)-4,4-bis(4-fluorobenzyl)pyrrolidine-2-carboxamide Di-trifluoroacetate salt], for which the Ki is under 500 nM at MASP-2 (CCP1-CCP2-SP) (read-out: MASP-2 Ki), 500 to 2500 nM at mMASP-2 (read-out: mMASP-2 Ki) and over 25 µM at human α-thrombin (read-out: Thrombin Ki). The “MASP-2 vs. thrombin selectivity” value on MASP-2 (CCP1-CCP2-SP) (setting [1]) is given as “**** (≥100-fold)”.
Regarding `Cc1nc(N)ccc1CNC(=O)[C@H](C)NC(=O)[C@H]1C[C@H](Cc2ccc(Br)c(Cl)c2)CN1` [compound 1466, (2R,4S)—N—((S)-1-(((6-Amino-2-methylpyridin-3-yl)methyl)amino)-1-oxopropan-2-yl)-4-(4-bromo-3-chlorobenzyl)pyrrolidine-2-carboxamide Di-trifluoroacetate salt], the inhibition constant (Ki) at MASP-2 (CCP1-CCP2-SP) (read-out: MASP-2 Ki) was under 500 nM; on mMASP-2 (read-out: mMASP-2 Ki) it was under 500 nM; at human α-thrombin (Thrombin Ki (μM)) it was 10 to 25 µM. At MASP-2 (CCP1-CCP2-SP) (setting [1]), the “MASP-2 vs. thrombin selectivity” value is reported as “**** (≥100-fold)”.
Consider `C[C@H](NC(=O)[C@H]1C[C@H](Cc2ccccc2-c2ccccc2)CN1)C(=O)NCc1cnc2[nH]cc(Cl)c2c1` [compound 1393, (2R,4S)-4-([1,1′-Biphenyl]-2-ylmethyl)-N-((S)-1-(((3-chloro-1H-pyrrolo[2,3-b]pyridin-5-yl)methyl)amino)-1-oxopropan-2-yl)pyrrolidine-2-carboxamide Di-trifluoroacetate salt], for which the figures for the Ki at MASP-2 (CCP1-CCP2-SP) (read-out: MASP-2 Ki), on mMASP-2 (read-out: mMASP-2 Ki) and on human α-thrombin (read-out: Thrombin Ki) were under 500 nM, under 500 nM and under 0.5 µM, respectively. Besides, the “MASP-2 vs. thrombin selectivity” value on MASP-2 (CCP1-CCP2-SP) (setting [1]) is listed as “* (≥1.0 to <5.0-fold)”.
In the case of `Cc1nc(N)ccc1CNC(=O)[C@H](C)NC(=O)[C@H]1C[C@H](Cc2ccc(N3CCCC3=O)cc2)CN1` [compound 1391, (2R,4S)—N—((S)-1-(((6-Amino-2-methylpyridin-3-yl)methyl)amino)-1-oxopropan-2-yl)-4-(4-(2-oxopyrrolidin-1-yl)benzyl)pyrrolidine-2-carboxamide Di-trifluoroacetate salt], the Ki at MASP-2 (CCP1-CCP2-SP) (read-out: MASP-2 Ki) was under 500 nM; at mMASP-2 (read-out: mMASP-2 Ki), under 500 nM; at human α-thrombin (read-out: Thrombin Ki), over 25 µM. Further, the “MASP-2 vs. thrombin selectivity” value at MASP-2 (CCP1-CCP2-SP) (setting [1]) is on record as “**** (≥100-fold)”.
With `N=C(N)c1ccc(CNC(=O)[C@H](Cc2cnc[nH]2)NC(=O)[C@H](N)CCc2ccccc2)cc1` [compound 1332, (R)-2-Amino-N—((S)-1-((4-carbamimidoylbenzyl)amino)-3-(1H-imidazol-5-yl)-1-oxopropan-2-yl)-4-phenylbutanamide Di-trifluoroacetate], the Ki on MASP-2 (CCP1-CCP2-SP) was 10000 to 25000 nM; at mMASP-2 (read-out: mMASP-2 Ki), 2500 to 10000 nM; on human α-thrombin (read-out: Thrombin Ki), over 25 µM.
`C[C@H](NC(=O)[C@H]1C[C@@H](c2ccccc2)CCN1)C(=O)NCc1cc(Cl)ccc1-n1cnnn1` [compound 1426, (2R,4S)—N—((S)-1-((5-Chloro-2-(1H-tetrazol-1-yl)benzyl)amino)-1-oxopropan-2-yl)-4-phenylpiperidine-2-carboxamide Trifluoroacetate]: the Ki on MASP-2 (CCP1-CCP2-SP) (read-out: MASP-2 Ki) is under 500 nM; on mMASP-2 (read-out: mMASP-2 Ki), 500 to 2500 nM; at human α-thrombin (Thrombin Ki (μM)), 0.5 to 2.5 µM. Besides, on MASP-2 (CCP1-CCP2-SP) (setting [1]), the “MASP-2 vs. thrombin selectivity” value was “*** (≥25 to <100-fold)”.
As for `Cc1cccc(CC[C@@H](N)C(=O)N[C@@H](C)C(=O)NCc2ccc(C(=N)N)cc2)c1C` [compound 1072], the “MASP-2 vs. thrombin selectivity” value on MASP-2 (CCP1-CCP2-SP) (MASP-2 inhibition versus thrombin) was “** (5.0 to 25-fold)”. The values for the inhibition constant Ki at MASP-2 (CCP1-CCP2-SP) (read-out: MASP-2 Ki), at mMASP-2 (read-out: mMASP-2 Ki) and on human α-thrombin (read-out: Thrombin Ki) were under 500 nM, under 500 nM and under 0.5 µM, respectively.
For the compound `CCc1nc(N)ccc1CNC(=O)[C@H](C)NC(=O)[C@H]1C[C@H](c2ccccc2)CN1` [compound 1323, (2R,4R)—N—((S)-1-(((6-Amino-2-ethylpyridin-3-yl)methyl)amino)-1-oxopropan-2-yl)-4-phenylpyrrolidine-2-carboxamide Dihydrochloride], the Ki on MASP-2 (CCP1-CCP2-SP) (read-out: MASP-2 Ki) was over 25000 nM; at mMASP-2 (read-out: mMASP-2 Ki), 10000 to 25000 nM; at human α-thrombin (read-out: Thrombin Ki), over 25 µM.
On to `CC(=O)O/N=C(\N)c1ccc(CNC(=O)[C@H](C)NC(=O)[C@H]2C[C@H](c3ccccc3)CN2)cc1` [compound 1264, (2R,4R)—N—((S)-1-((4-((Z)-N′-Acetoxycarbamimidoyl)benzyl)amino)-1-oxopropan-2-yl)-4-phenylpyrrolidine-2-carboxamide], for which the Ki at MASP-2 (CCP1-CCP2-SP) was 2500 to 10000 nM; on mMASP-2 it was 10000 to 25000 nM; on human α-thrombin (read-out: Thrombin Ki), over 25 µM.
Regarding `Cc1cc(Cl)cc(CNC(=O)[C@H](C)NC(=O)[C@H]2C[C@H](Cc3ccccc3-c3ccc(Cl)s3)CN2)c1O` [compound 1408, (2R,4S)—N—((S)-1-((5-Chloro-2-hydroxy-3-methylbenzyl)amino)-1-oxopropan-2-yl)-4-(2-(5-chlorothiophen-2-yl)benzyl)pyrrolidine-2-carboxamide Hydrochloride], the results for the Ki at MASP-2 (CCP1-CCP2-SP) (read-out: MASP-2 Ki), at mMASP-2 (read-out: mMASP-2 Ki) and on human α-thrombin (Thrombin Ki (μM)) were under 500 nM, 2500 to 10000 nM and 2.5 to 10 µM, respectively. Also, the “MASP-2 vs. thrombin selectivity” value at MASP-2 (CCP1-CCP2-SP) (setting [1]) was “** (≥5.0 to <25-fold)”.
Take `C[C@H](NC(=O)[C@H]1C[C@H](c2ccccc2)CN1)C(=O)NCc1cnc2[nH]nc(Cl)c2c1` [compound 1384, (2R,4R)—N—((S)-1-(((3-Chloro-1H-pyrazolo[3,4-b]pyridin-5-yl)methyl)amino)-1-oxopropan-2-yl)-4-phenylpyrrolidine-2-carboxamide Dihydrochloride]: the Ki is 10000 to 25000 nM at MASP-2 (CCP1-CCP2-SP), over 25000 nM on mMASP-2 (read-out: mMASP-2 Ki) and over 25 µM at human α-thrombin (read-out: Thrombin Ki). Also, the “MASP-2 vs. thrombin selectivity” value at MASP-2 (CCP1-CCP2-SP) (setting [1]) was “* (≥1.0 to <5.0-fold)”.
For `Cc1nc(N)ccc1CNC(=O)[C@@H](C)NC(=O)[C@H]1C[C@H](Cc2cccc(C(F)(F)F)c2)C(=O)N1` [compound 1321, (2R,4S)—N—((R)-1-(((6-Amino-2-methylpyridin-3-yl)methyl)amino)-1-oxopropan-2-yl)-5-oxo-4-(3-(trifluoromethyl)benzyl)pyrrolidine-2-carboxamide Di-trifluoroacetate salt], the Ki is 10000 to 25000 nM at MASP-2 (CCP1-CCP2-SP), over 25000 nM on mMASP-2 (read-out: mMASP-2 Ki) and over 25 µM on human α-thrombin (read-out: Thrombin Ki).
For `C[C@H](NC(=O)[C@H]1C[C@H](c2ccccc2)CN1)C(=O)NCc1cc(Cl)ccc1NS(C)(=O)=O` [compound 1274, (2R,4R)—N—((S)-1-((5-chloro-2-(methylsulfonamido)benzyl)amino)-1-oxopropan-2-yl)-4-phenylpyrrolidine-2-carboxamide], the Ki was 2500 to 10000 nM on MASP-2 (CCP1-CCP2-SP), 10000 to 25000 nM at mMASP-2 (read-out: mMASP-2 Ki) and over 25 µM on human α-thrombin (read-out: Thrombin Ki). In addition, on MASP-2 (CCP1-CCP2-SP) (setting [1]), the “MASP-2 vs. thrombin selectivity” value is recorded as “** (≥5.0 to <25-fold)”.
`C[C@H](NC(=O)c1nc(-c2ccccc2)cs1)C(=O)NCc1ccc(C(=N)N)cc1` [compound 1286, (S)—N-(1-((4-Carbamimidoylbenzyl)amino)-1-oxopropan-2-yl)-4-phenylthiazole-2-carboxamide]: the Ki was 2500 to 10000 nM on MASP-2 (CCP1-CCP2-SP), under 500 nM on mMASP-2 (read-out: mMASP-2 Ki) and 0.5 to 2.5 µM at human α-thrombin (Thrombin Ki (μM)). At MASP-2 (CCP1-CCP2-SP) (setting [1]), the “MASP-2 vs. thrombin selectivity” value is recorded as “−− (<1.0-fold)”.
The corresponding values for `CCCCCN[C@H](CCc1ccccc1)C(=O)N[C@@H](C)C(=O)NCc1ccc(N)nc1C` [compound 1377, (R)—N—((S)-1-(((6-Amino-2-methylpyridin-3-yl)methyl)amino)-1-oxopropan-2-yl)-2-(pentylamino)-4-phenylbutanamide Di-trifluoroacetate salt] are 500 to 2500 nM, over 25000 nM, 10 to 25 µM and “** (≥5.0 to <25-fold)”.
For the compound `Cc1nc(N)ccc1CNC(=O)[C@H](C)NC(=O)[C@H]1C[C@H](Cc2cccc(C(F)(F)F)c2)C(=O)N1` [compound 1320, (2R,4S)—N—((S)-1-(((6-Amino-2-methylpyridin-3-yl)methyl)amino)-1-oxopropan-2-yl)-5-oxo-4-(3-(trifluoromethyl)benzyl)pyrrolidine-2-carboxamide Di-trifluoroacetate salt], the Ki at MASP-2 (CCP1-CCP2-SP) (read-out: MASP-2 Ki) was under 500 nM; on mMASP-2 (read-out: mMASP-2 Ki), 500 to 2500 nM; at human α-thrombin (Thrombin Ki (μM)), 0.5 to 2.5 µM. For the same compound, on MASP-2 (CCP1-CCP2-SP) (setting [1]), the “MASP-2 vs. thrombin selectivity” value was “** (≥5.0 to <25-fold)”.
Consider `Cc1nc(N)ccc1CNC(=O)[C@H](C)NC(=O)[C@H]1C[C@@H](CCc2ccccc2)CN1` [compound 1322, (2R,4R)—N—((S)-1-(((6-Amino-2-methylpyridin-3-yl)methyl)amino)-1-oxopropan-2-yl)-4-phenethylpyrrolidine-2-carboxamide Dihydrochloride], for which the Ki on MASP-2 (CCP1-CCP2-SP) (read-out: MASP-2 Ki) is under 500 nM; on mMASP-2 (read-out: mMASP-2 Ki), 500 to 2500 nM; at human α-thrombin (Thrombin Ki (μM)), 10 to 25 µM. Also, at MASP-2 (CCP1-CCP2-SP) (setting [1]), the “MASP-2 vs. thrombin selectivity” value is “*** (≥25 to <100-fold)”.
For `CC(=O)Nc1ccc(CCN[C@H](CCc2ccccc2)C(=O)N[C@@H](C)C(=O)NCc2ccc(N)nc2C)cc1` [compound 1368, (R)-2-((4-Acetamidophenethyl)amino)-N-((S)-1-(((6-amino-2-methylpyridin-3-yl)methyl)amino)-1-oxopropan-2-yl)-4-phenylbutanamide Dihydrochloride], the Ki is 500 to 2500 nM at MASP-2 (CCP1-CCP2-SP), 10000 to 25000 nM on mMASP-2 (read-out: mMASP-2 Ki) and over 25 µM on human α-thrombin (read-out: Thrombin Ki). In addition, the “MASP-2 vs. thrombin selectivity” value on MASP-2 (CCP1-CCP2-SP) (setting [1]) was “** (≥5.0 to <25-fold)”.

The values above are taken from patent US11584714B2 (priority 2018, dated 2023).
